Results from patent US20130096067A1, “DROSOPHILA TUMOR STEM CELL MODEL AND USES THEREOF” (priority 2011, published 2013).
Where two headings read alike, the source gives them in different places. Peptide text beside a SMILES is read from it. * marks the point of attachment. Cbz = O=C(OCc1ccccc1)*

Tested on: Raf-1^gof intestinal tumors
[1] = screen of 480 ICCB compounds in vials, compounds fed to flies with one-day old Raf-1^gof tumors, assessed three days later, esg-Gal4 luciferase
[2] = screen of 480 ICCB compounds in vials, compounds fed to flies with one-day old Raf-1^gof tumors, assessed three days later, esg-Gal4 luciferase, averaged from multiple wells
[3] = ICCB compounds fed in vials to flies with one-day old Raf-1^gof tumors, assessed three days later
[4] = ICCB compounds fed in vials to flies with one-day old Raf-1^gof tumors, assessed three days later, averaged from multiple wells
Also: test concentration or dose not given here.

SMILES | Log2 (fold) (luciferase activity, log2 of the fold difference relative to DMSO controls) [1] | Fold (luciferase activity, fold difference relative to DMSO controls) [2] | Log2 (fold) of luciferase activity relative to DMSO controls [3] | Fold (luciferase activity relative to DMSO controls) [4] [fold] | other results
CC(=O)OCOC(c1cc([N+](=O)[O-])ccc1Oc1ccc(Br)cc1)P(=O)(OCOC(C)=O)OCOC(C)=O (stereo not drawn) [RWJ-60475-(AM)3] | −0.217 | 0.861 | – | – | –
COc1ccc(C2CNC(=O)C2)cc1OC1CCCC1 (stereo not drawn) [Rolipram] | −0.414 | 0.750 | – | – | –
CC(=O)c1c(O)c(C)c(O)c(Cc2c(O)c3c(c(C(=O)/C=C/c4ccccc4)c2O)OC(C)(C)C=C3)c1O [Rottlerin] | −0.865 | 0.549 | – | – | –
Oc1ccc(-c2nc(-c3ccc(F)cc3)c(-c3ccncc3)[nH]2)cc1 [SB 202190] | −0.222 | 0.857 | – | – | –
C[S+]([O-])c1ccc(-c2nc(-c3ccc(F)cc3)c(-c3ccncc3)[nH]2)cc1 (stereo not drawn) [SB 203580] | – | – | – | – | Fold (luciferase activity relative to DMSO controls) (in vivo): 1.036 fold; Log2 (fold) of luciferase activity relative to DMSO controls (in vivo): 0.051
NC(=O)c1ccc(-c2nc(-c3ccccn3)c(-c3ccc4c(c3)OCO4)[nH]2)cc1 [SB-431542] | – | – | 0.068 | 1.048 | –
N#Cc1cc2c(OCC(O)CN3CCN(C(c4ccccc4)c4ccccc4)CC3)cccc2[nH]1 (stereo not drawn) [SDZ-201106] | – | – | – | – | Fold (luciferase activity, fold difference relative to DMSO controls) (in vivo): 0.804; Log2 (fold) (luciferase activity, log2 of the fold difference relative to DMSO controls) (in vivo): −0.315
COc1ccc(CCCOC(Cn2ccnc2)c2ccc(OC)cc2)cc1 (stereo not drawn) [SKF-96365] | – | – | 0.134 | 1.097 | –
Oc1c2ccccc2c2c3c(cccc13)N=N2 [SP-600125] | – | – | −0.100 | 0.933 | –
CCCCCCCCCCCCC/C=C/[C@@H](O)[C@@H](N)CO [SPHINGOSINE] | – | – | −0.030 | 0.980 | –
Nc1ncnc2c1ncn2C1CCCO1 (stereo not drawn) [SQ22536] | −0.270 | 0.829 | – | – | –
O=C(O)CCC/C=C\C[C@@H]1[C@H](CNNC(=O)Nc2ccccc2)[C@H]2CC[C@@H]1O2 [SQ-29548] | −0.606 | 0.657 | – | – | –
CN(C)c1ccc(/C=C2\C(=O)Nc3ccccc32)cc1 [SU-4312] | – | – | 0.118 | 1.085 | –
CC(C)=CC[C@@H](O)C1=CC(=O)c2c(O)ccc(O)c2C1=O [Shikonin] | −0.795 | 0.576 | – | – | –
O=C1CCc2c(ccc3ccccc23)O1 [Splitomycin] | −0.241 | 0.846 | – | – | –
CCCCCc1cc(O)c2c(c1)OC(C)(C)C1CCC(C(=O)O)=CC21 (stereo not drawn) [TETRAHYDROCANNABINOL-7-OIC ACID] | −0.240 | 0.847 | – | – | –
COc1ccc2cc1Oc1ccc(cc1)C[C@H]1c3cc(c(OC)cc3CCN1C)Oc1c(OC)c(OC)cc3c1[C@H](C2)N(C)CC3 [TETRANDRINE] | −0.318 | 0.802 | – | – | –
CCN(CC)CCCCCCCCOC(=O)c1cc(OC)c(OC)c(OC)c1 [TMB-8] | −0.325 | 0.798 | – | – | –
Cc1ccc(S(=O)(=O)NC(=O)NN2CCCCCC2)cc1 [TOLAZAMIDE] | −0.365 | 0.776 | – | – | –
CCCCNC(=O)NS(=O)(=O)c1ccc(C)cc1 [TOLBUTAMIDE] | −0.494 | 0.710 | – | – | –
c1ccc(CN(CCN(Cc2ccccn2)Cc2ccccn2)Cc2ccccn2)nc1 [TPEN] | −0.717 | 0.608 | – | – | –

SMILES | Log2 (fold) (luciferase activity, log2 of the fold difference relative to DMSO controls) [1] | Fold (luciferase activity, fold difference relative to DMSO controls) [2] | Log2 (fold) of luciferase activity relative to DMSO controls [3] | Fold (luciferase activity relative to DMSO controls) [4] [fold] | other results
FC(F)(F)c1ccccc1-n1ccnc1 [TRIM] | – | – | −0.160 | 0.895 | –
C/C(=C\c1ccc(C(=O)O)cc1)c1ccc2c(c1)C(C)(C)CCC2(C)C [TTNPB] | – | – | −0.114 | 0.924 | –
Cc1coc2c1C(=O)C(=O)c1c-2ccc2c1CCCC2(C)C [Tanshinone IIA] | −0.570 | 0.674 | – | – | –
Cl.NC(=S)NCCCC(N)C(=O)O [Thiocitrulline [L-Thiocitrulline HCl]] | – | – | −0.170 | 0.889 | –
O=C(O)CNC(=O)C(CS)Cc1ccccc1 (stereo not drawn) [Thiorphan] | −0.673 | 0.627 | – | – | –
Cc1ccc(S(=O)(=O)N[C@@H](Cc2ccccc2)C(=O)CCl)cc1 [Tosyl-Phe-CMK (TPCK)] | −0.233 | 0.851 | – | – | –
COc1cc2c(cc1OC)-c1c/c(=N\c3c(C)cc(C)cc3C)n(C)c(=O)n1CC2 [Trequinsin] | −0.279 | 0.824 | – | – | –
N#CC(C#N)=Cc1ccc(O)cc1 [Tyrphostin-8] | – | – | – | – | Fold (luciferase activity, fold difference relative to DMSO controls) (in vivo): 0.796; Log2 (fold) (luciferase activity, log2 of the fold difference relative to DMSO controls) (in vivo): −0.329
COc1ccc2c(c1)CC[C@@H]1[C@@H]2CC[C@]2(C)[C@@H](NCCCCCCN3C(=O)C=CC3=O)CC[C@@H]12 [U73122] | −0.865 | 0.549 | – | – | –
N#CC(=C(/N)Sc1ccccc1N)/C(C#N)=C(/N)Sc1ccccc1N [U-0126] | – | – | −0.023 | 0.984 | –
C1CCC(N=C(NC23CC4CC(CC(C4)C2)C3)N2CCOCC2)CC1.Cl [U-37883A] | −0.572 | 0.673 | – | – | –
CCCCC[C@H](O)/C=C/[C@@H]1[C@@H](C/C=C\CCCC(=O)O)[C@H]2CO[C@@H]1C2 [U-46619] | – | – | −0.063 | 0.957 | –
C[C@]12C=CC(=O)C=C1CC[C@@H]1C2=CC[C@]2(C)[C@@H](C(=O)CN3CCN(c4cc(N5CCCC5)nc(N5CCCC5)n4)CC3)CC[C@@H]12.O=C(O)/C=C\C(=O)O [U-74389G] | −0.462 | 0.726 | – | – | –
CCCCC/C=C\C[C@@H](O)/C=C/c1cccc(C[C@@H](O)CCCCO)n1 [U-75302] | – | – | −0.041 | 0.972 | –
Cc1c(C(=O)c2cccc3ccccc23)c2cccc3c2n1[C@H](CN1CCOCC1)CO3 [WIN 55,212-2] | −0.305 | 0.810 | – | – | –
Cc1cccc(Nc2cc(Cl)nc(SCC(=O)O)n2)c1C [WY-14643] | – | – | 0.020 | 1.014 | –
C1CCC[C@H]2CCCN3CC[C@@H](CCCCCC[C@@H]4CCCN5CC[C@@H](CC1)O[C@@H]45)O[C@@H]23 [Xestospongin C] | −0.456 | 0.729 | – | – | –
C[C@@H](N)[C@H]1CC[C@H](C(=O)Nc2ccncc2)CC1 [Y-27632] | −0.380 | 0.768 | – | – | –
COc1ccc(CCN(C)CCc2ccc(OC)c(OC)c2)cc1OC [YS035] | – | – | −0.152 | 0.900 | –
O=C[C@@H]1CCCN1C(=O)[C@@H]1CCCN1C(=O)OCc1ccccc1 [Z-prolyl-prolinal] (Cbz-Pro-Pro-aldehyde) | −0.692 | 0.619 | – | – | –
CC(C)C[C@@H](/C=C/S(C)(=O)=O)NC(=O)[C@H](CC(C)C)NC(=O)[C@H](CC(C)C)NC(=O)OCc1ccccc1 [ZL3VS] | −0.513 | 0.701 | – | – | –
